This is an account of results in ChEMBL document CHEMBL5365498, “Regulation of Eukaryotic Translation Initiation Factor 4E as a Potential Anticancer Strategy” (J Med Chem, 2023).

One test deals with MCF7. In words: Anticancer activity against human MCF7 cells assessed as cell growth inhibition measured after 72 hrs by CCK-8 assay. As to conditions: MCF7, 72 h. Format: functional, cell-based. (Tetrazolium dyes change colour on reduction, which living cells bring about.)
The target of test [1] is Serine/threonine-protein kinase mTOR (Homo sapiens, UniProt P42345). Put plainly: Inhibition of human mTOR (1360 to 2549 residues) measured after 2 hrs in presence of ATP by LANCE Ultra kinase assay. In general terms: In TR-FRET formats the signal depends on donor and acceptor labels being close together.
A further test has as its system A549. Put plainly: Anticancer activity against human A549 cells assessed as cell growth inhibition measured after 72 hrs by CCK-8 assay. The class given is functional, cell-based. As to conditions: A549, 72 h.
Test [2] in a line: Anticancer activity against Cervical carcinoma cell line (unknown origin) assessed as cell growth inhibition. The class given is functional, cell-based.
Test [3] can be described thus: Anticancer activity against Breast carcinoma cell (unknown origin) assessed as cell growth inhibition. Format: functional, cell-based.
The test system of the next test is Lung cancer cell line. Put plainly: Anticancer activity against Lung cancer cell line (unknown origin) assessed as cell growth inhibition. The class given is functional, cell-based.
The subject of the next test is Melanoma tumor cell line. In words: Anticancer activity against Melanoma tumor cell line (unknown origin) assessed as cell growth inhibition. Format: functional, cell-based.

In the case of `CNC(=O)Nc1ccc(-c2nc(N3CCOCC3)nc3c2C=NC3C2CCOCC2)cc1` (configuration not stated), the IC50 (in general, the point on the concentration scale where inhibition reaches its midpoint) in the test on MCF7 is 600 nM; in test [1], 23.2 nM; in the test with A549, 230 nM.
On to `Oc1cccc(-c2nc(N3CCOCC3)c3oc4ncccc4c3n2)c1` [PI-103], for which the IC50 (in test [2]; in test [3]; with Lung cancer cell line; in the test with Melanoma tumor cell line) was 20 nM each time.
